Laboratory results taken from ChEMBL document CHEMBL3734699, “A new cerebroside from the fruiting bodies of Hericium erinaceus and its applicability to cancer treatment” (Bioorg Med Chem Lett, 2015).
Active and inactive are the calls of the source. The rule behind the calls is not given here.

Columns and labels:
[1] = biological target: Acetylcholinesterase (Homo sapiens) (UniProt P22303); assay: Inhibition of acetylcholine esterase (unknown origin) up to 200 uM by Ellman's colorimetric method
LLC-PK1 = assay: Renoprotective activity in pig LLC-PK1 cells assessed as inhibition of cisplatin-induced nephrotoxicity at 100 to 200 uM preincubated for 2 hrs followed by cisplatin challenge measured after 24 hrs by MTT assay; format: functional, cell-based; settings: Sus scrofa
HUVEC [2] = assay: Cytotoxicity in HUVEC assessed as reduction in cell viability up to 50 uM; format: cell-based; settings: human
[3] = Antioxidant activity of the compound assessed as DPPH radical scavenging activity by colorimetric method; format: physicochemical
HUVEC [4] = assay: Antiangiogenesis activity in HUVEC assessed as inhibition of VEGF-induced tube formation at 50 uM; format: functional, cell-based; settings: Homo sapiens
HUVEC [5] = assay: Antiangiogenesis activity in HUVEC assessed as inhibition of VEGF-induced tube formation at 25 uM; format: functional, cell-based; settings: Homo sapiens

Sequence of Acetylcholinesterase (Homo sapiens) (P22303 whole entry): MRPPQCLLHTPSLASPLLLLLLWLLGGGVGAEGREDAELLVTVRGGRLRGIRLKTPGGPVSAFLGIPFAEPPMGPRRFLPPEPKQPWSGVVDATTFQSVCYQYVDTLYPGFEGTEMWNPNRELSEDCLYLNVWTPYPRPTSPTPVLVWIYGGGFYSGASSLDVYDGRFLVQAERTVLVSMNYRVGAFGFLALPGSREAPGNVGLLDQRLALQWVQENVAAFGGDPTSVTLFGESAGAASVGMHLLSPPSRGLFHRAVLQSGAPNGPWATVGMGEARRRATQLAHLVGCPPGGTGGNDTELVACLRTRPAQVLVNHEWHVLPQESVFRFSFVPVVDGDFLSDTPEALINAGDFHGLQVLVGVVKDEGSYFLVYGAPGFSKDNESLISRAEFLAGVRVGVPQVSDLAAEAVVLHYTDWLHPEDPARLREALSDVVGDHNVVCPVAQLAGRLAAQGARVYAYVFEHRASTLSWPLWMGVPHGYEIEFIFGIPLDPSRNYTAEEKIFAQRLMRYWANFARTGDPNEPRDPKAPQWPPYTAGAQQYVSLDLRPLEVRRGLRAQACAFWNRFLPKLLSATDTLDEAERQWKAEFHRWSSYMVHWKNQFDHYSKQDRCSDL

| SMILES | inhibition [1] | Activity (LLC-PK1) | Activity (HUVEC [2]) | Activity [3] | Activity (HUVEC [4]) | Activity (HUVEC [5]) |
| --- | --- | --- | --- | --- | --- | --- |
| CCCCCCCCCCCCCCCC[C@@H](O)C(=O)N[C@@H](CO[C@@H]1O[C@H](CO)[C@@H](O)[C@H](O)[C@H]1O)[C@H](O)/C=C/CC/C=C(\C)CCCCCC | inactive | Active | Non-toxic | Not Active | Active | Active |
| CC(C)=CCC[C@](C)(O[C@@H]1O[C@H](CO)[C@@H](O)[C@H](O)[C@H]1O)[C@H]1CC[C@]2(C)[C@@H]1[C@H](O)C[C@@H]1[C@@]3(C)CC[C@H](O)C(C)(C)[C@@H]3CC[C@]12C | – | – | – | – | – | Active |
